Test results from article PMC3064523 (Clinical cancer research : an official journal of the …, 2010).
Where “and” joins values, the source holds several entries; their conditions need not be identical. Equal entries are not always repeated. Entries after “also recorded” stand apart in the source; their conditions may differ. Where two headings read alike, the source gives them in different places.

What was measured:
[1] = tested on: Histone H3 acetylation in PBMCs; test: PBMC histone H3 acetylation, sandwich ELISA; assay type: in vivo, human; settings: for Post-VPA/Pre-VPA AcH3: steady state trough
[2] = assay type: in vivo, human; settings: for Total VPA / Free VPA: at PBMC sampling; for CL/F: CL/F (apparent total body clearance) Median +/− SD; for half-life: t1/2 Median +/− SD
[3] = tested on: children with refractory solid or CNS tumors; test: Phase 1 trial: dose-limiting and non-dose-limiting toxicities of oral VPA; assay type: in vivo, human; settings: for Description of DLTs: cycle 1
[4] = tested on: children with newly diagnosed high-grade or brainstem gliomas; test: Ongoing phase II trial of VPA and radiation; assay type: in vivo, human; settings: seven children; VPA trough concentrations of 85–115 mcg/ml
[5] = tested on: human cancers; settings: pre-clinical studies; cited from earlier work
[6] = tested on: Histone H4 acetylation in PBMCs; test: PBMC histone H4 acetylation, sandwich ELISA; assay type: in vivo, human; settings: steady state trough
[7] = tested on: PBMC histone acetylation (AcH3 and AcH4); settings: 4 hours after a dose of VPA; cited from earlier work
[8] = tested on: histone acetylation; settings: at the time of maximal drug concentration; cited from earlier work
[9] = human, plasma, po, Steady State, Free VPA (n = 4), oral
[10] = human, plasma, po, Steady State, Total VPA (n = 4), oral
[11] = Cycle 1 (16 total cycle), 16 evaluable patients
[12] = Cycle 2 to 7 (15 total cycles), 16 evaluable patients

What does the source list for `CCCC(CCC)C(=O)O` [VPA, Valproic acid]?
Patients with reduced post-treatment AcH3 and AcH4 levels in PBMCs ([1]; 10 patients studied): Five; Patients with increased AcH3 and AcH4 levels in PBMCs ([1]; 10 patients studied, at trough VPA exposure): Five and 5 out of 10; Post-VPA/Pre-VPA AcH3 ([1]; Patient 712904): 0.75; Post-VPA/Pre-VPA AcH3 ([1]; Patient 714036): 0.93; Post-VPA/Pre-VPA AcH3 ([1]; Patient 734297): 1.51; Post-VPA/Pre-VPA AcH3 ([1]; Patient 747001): 0.43; Post-VPA/Pre-VPA AcH3 ([1]; Patient 757318): 1.44; Post-VPA/Pre-VPA AcH3 ([1]; Patient 769495): 1.38; Post-VPA/Pre-VPA AcH3 ([1]; Patient 770113): 0.90; Patients with increased PBMC histone acetylation ([1]; of patients studied, steady state, H3 and H4): 50%; Total VPA ([2]; Patient 536584): 81.0 µg/mL; Total VPA ([2]; Patient 712904): 100.9 µg/mL; Total VPA ([2]; Patient 714036): 109.0 µg/mL; Total VPA ([2]; Patient 734297): 78.2 µg/mL; Free VPA ([2]; Patient 747001): 19.1 µg/mL; Total VPA ([2]; Patient 747001): 90.9 µg/mL; Total VPA ([2]; Patient 752294): 134.1 µg/mL; Free VPA ([2]; Patient 757318): 36.6 µg/mL; Total VPA ([2]; Patient 757318): 90.1 µg/mL; Free VPA ([2]; Patient 769495): 8.1 µg/mL; Total VPA ([2]; Patient 769495): 77.0 µg/mL; Free VPA ([2]; Patient 770059): 11 µg/mL; Total VPA ([2]; Patient 770059): 105.7 µg/mL; Free VPA ([2]; Patient 770113): 8 µg/mL; Total VPA ([2]; Patient 770113): 55.7 µg/mL; Mean steady state VPA dose ([2]; VPA concentration 75–100 mcg/ml, syrup and capsules (n = 2)): 12.5 ± 3.5 mg/kg; Mean steady state VPA dose ([2]; VPA concentration 75–100 mcg/ml, syrup only (n = 4)): 17.5 ± 2.9 mg/kg; Mean steady state VPA dose ([2]; VPA concentrations 100–150 mcg/ml, syrup and capsules (n = 8)): 41.3 ± 20.7 mg/kg; Mean steady state VPA dose ([2]; VPA concentrations 100–150 mcg/ml, syrup only (n = 10)): 36.0 ± 27.7 mg/kg; concentration at 9 weeks ([2]; human, plasma, oral): 123 µg/mL; concentration at 3 days ([2]; human, plasma, oral, 25 mg/kg/day): 172 µg/mL; Vd/F ([2]; human, plasma, po, 25 mg/kg/day): 0.12 L/kg; CL/F ([2]; human, plasma, po, 25 mg/kg/day, First dose, Total VPA (n = 4), oral): 0.2 mL/min/kg; CL/F [2, 9]: 0.87 mL/min/kg; CL/F [2, 10]: 0.133 mL/min/kg; half-life [2, 9]: 6.5 h; half-life [2, 10]: 11.4 h; Mean final dose of VPA ([2]; starting dose 25 mg/kg/day divided b.i.d., trough above 100 mcg/ml): exceeded 50 mg/kg/day; Number of dose escalations to achieve targeted concentrations (mean ± SD) ([2]; t.i.d. dosing): 1.3 ± 0.5; Mean final dose of VPA ([2]; t.i.d., starting dose 15 mg/kg/day): less than 20 mg/kg/day; Free VPA concentration as % of total concentration (mean +/− SD) ([2]; total VPA concentration exceeded 125 mcg/ml, 8 measurements): 44.9 +/− 15.8%; Free VPA concentration as % of total concentration (mean +/− SD) ([2]; total VPA concentrations below 100 mcg/ml, 32 measurements): 16.8 +/− 6.9%; Free VPA concentration as % of total concentration (mean +/− SD) ([2]; total VPA concentrations between 100–125 mcg/ml, 17 measurements): 21.3 +/− 11.5%; Fraction of free VPA ([2]; until total VPA concentrations exceeded 125 mcg/ml): less than 0.25; Description of DLTs ([3]; Cohort 0 (trough VPA level 75–100 mcg/ml), TID dosing): None; Description of DLTs ([3]; Cohort 1 (trough VPA level 100–150 mcg/ml), BID dosing): grade 3 somnolence; also recorded: Somnolence (1); Description of DLTs ([3]; Cohort 1 (trough VPA level 100–150 mcg/ml), TID dosing): grade-3 somnolence and grade-5 hemorrhage/hemothorax; also recorded: Somnolence (1) Pulmonary hemorrhage (1) Dyspnea (1) Hypoxia (1) Hypotension (1) Hypocalcemia (1); Anemia, non-dose limiting, maximum Grade 1 [3, 11]: 3; Anemia, non-dose limiting, maximum Grade 2 [3, 11]: 2; Anemia, non-dose limiting, maximum Grade 4 [3, 11]: 1; Dizziness, non-dose limiting, maximum Grade 1 [3, 11]: 4; Fatigue, non-dose limiting, maximum Grade 1 [3, 11]: 3; Fatigue, non-dose limiting, maximum Grade 2 [3, 11]: 2; Headache, non-dose limiting, maximum Grade 1 [3, 11]: 1; Headache, non-dose limiting, maximum Grade 2 [3, 11]: 1; Hypoalbuminemia, non-dose limiting, maximum Grade 1 [3, 11]: 1; Hypoalbuminemia, non-dose limiting, maximum Grade 2 [3, 11]: 2; Leukopenia, non-dose limiting, maximum Grade 1 [3, 11]: 5; Leukopenia, non-dose limiting, maximum Grade 2 [3, 11]: 1; Lymphopenia, non-dose limiting, maximum Grade 1 [3, 11]: 4; Lymphopenia, non-dose limiting, maximum Grade 2 [3, 11]: 1; Lymphopenia, non-dose limiting, maximum Grade 4 [3, 11]: 1; Nausea, non-dose limiting, maximum Grade 1 [3, 11]: 1; Nausea, non-dose limiting, maximum Grade 3 [3, 11]: 1; Neutropenia, non-dose limiting, maximum Grade 1 [3, 11]: 1; Somnolence, non-dose limiting, maximum Grade 2 [3, 11]: 1; Thrombocytopenia, non-dose limiting, maximum Grade 1 [3, 11]: 6; Thrombocytopenia, non-dose limiting, maximum Grade 2 [3, 11]: 2; Vomiting, non-dose limiting, maximum Grade 2 [3, 11]: 2; Anemia, non-dose limiting, maximum Grade 1 [3, 12]: 2; Anemia, non-dose limiting, maximum Grade 2 [3, 12]: 1; Dizziness, non-dose limiting, maximum Grade 1 [3, 12]: 1; Fatigue, non-dose limiting, maximum Grade 2 [3, 12]: 1; Headache, non-dose limiting, maximum Grade 2 [3, 12]: 1; Leukopenia, non-dose limiting, maximum Grade 2 [3, 12]: 1; Leukopenia, non-dose limiting, maximum Grade 3 [3, 12]: 1; Lymphopenia, non-dose limiting, maximum Grade 1 [3, 12]: 2; Lymphopenia, non-dose limiting, maximum Grade 3 [3, 12]: 1; Neutropenia, non-dose limiting, maximum Grade 2 [3, 12]: 1; Neutropenia, non-dose limiting, maximum Grade 3 [3, 12]: 1; Neutropenia, non-dose limiting, maximum Grade 4 [3, 12]: 1; Thrombocytopenia, non-dose limiting, maximum Grade 1 [3, 12]: 2; Thrombocytopenia, non-dose limiting, maximum Grade 4 [3, 12]: 1; Toxicity of radiation and VPA [4]: without encountering neuro-toxicities or other dose-limiting toxicities; Threshold VPA concentration associated with anti-tumor activity [5]: exceeded 100 mcg/ml; Post-VPA/Pre-VPA AcH4 ([6]; Patient 712904): 0.75; Post-VPA/Pre-VPA AcH4 ([6]; Patient 714036): 0.87; Post-VPA/Pre-VPA AcH4 ([6]; Patient 734297): 1.11; Post-VPA/Pre-VPA AcH4 ([6]; Patient 747001): 0.47; Post-VPA/Pre-VPA AcH4 ([6]; Patient 757318): 1.55; Post-VPA/Pre-VPA AcH4 ([6]; Patient 769495): 2.45; Post-VPA/Pre-VPA AcH4 ([6]; Patient 770113): 0.70; Increases in AcH3 and AcH4 in PBMC [7]: observed in all patients

Which Histone hyper-acetylation [8] does the source give for `C/C=C1\NC(=O)[C@H]2CSSCC/C=C/[C@H](CC(=O)N[C@H](C(C)C)C(=O)N2)OC(=O)[C@H](C(C)C)NC1=O` [depsipeptide] here?
Its Histone hyper-acetylation is “histone hyper-acetylation in all patients”.
